Laboratory results: US9688721B2, “Tubulysin compounds, methods of making and use” (priority 2013, dated 2017)
Read-outs that look alike come from different tables or passages of the source.

What was measured:
H226 lung cancer cells = assay: ATP luminescence assay (CELLTITER-GLO), H226 cells; assay type: cell-based
Method: (§1) As controls, doxorubicin and the tubulysin analog Compound A, which contains an acetate group instead of a carbamate group at the Tuv subunit, were used. Compound A can be prepared according to the teachings of Cheng et al. 2011.
(§2) Tumor cell lines were obtained from the American Type Culture Collection (ATCC), P.O. Box 1549, Manassas, Va. 20108, USA, and cultured according to ATCC instructions. Cells were seeded at 1.0×10^3 cells/well in 96-well plates for 3 h for the ATP assays. 1:3 serial dilutions of the compounds were added to the wells. Plates were allowed to incubate for 24 to 72 h. […] The EC50 values—the concentration at which an agent inhibits or reduces cell proliferation by 50%—were determined using PRISM™ software, version 4.0 (GraphPad Software, La Jolla, Calif., USA).

786-O renal cancer cells = assay: ATP luminescence assay (CELLTITER-GLO), 786-O cells; assay type: cell-based
Method: as §1, §2

N87 gastric cancer cells = conditions: ATP luminescence assay
Method: as §2

SMILES	EC50 (H226 lung cancer cells; Homo sapiens, NCI-H226)	EC50 (786-O renal cancer cells; Homo sapiens, 786-0)	other results
CCOC(=O)C(C)C[C@H](Cc1ccccc1)NC(=O)c1csc([C@@H](C[C@H](C(C)C)N(CCc2ccc(N)cc2)C(=O)[C@@H](NC(=O)[C@H]2CCCCN2C)[C@@H](C)CC)OC(=O)NC)n1 (some centres unmarked) [(I-5)]	19.5 nM	22.9 nM	
CC[C@H](C)[C@H](NC(=O)[C@H]1CCCCN1C)C(=O)N(CCc1ccc(N)cc1)[C@H](C[C@@H](OC(=O)NC)c1nc(C(=O)N[C@@H](Cc2ccccc2)CC(C)C(=O)OC)cs1)C(C)C (some centres unmarked) [(I-6)]	9.9 nM	22.8 nM	
CC[C@H](C)[C@H](NC(=O)[C@H]1CCCCN1C)C(=O)N(CCc1ccc(N)cc1)[C@H](C[C@@H](OC(=O)NC)c1nc(C(=O)N[C@@H](Cc2ccccc2)CC(C)C(=O)O)cs1)C(C)C (some centres unmarked) [(I-7)]	15.4 nM	12.5 nM	
CC[C@H](C)[C@H](NC(=O)[C@H]1CCCCN1C)C(=O)N(C)[C@H](C[C@@H](OC(=O)Nc1ccccc1)c1nc(C(=O)N[C@@H](Cc2ccc(N)cc2)C[C@H](C)C(=O)O)cs1)C(C)C [Compound 75b]			EC50 (N87 gastric cancer cells): 0.39 nM
CC[C@H](C)[C@H](NC(=O)[C@H]1CCCCN1C)C(=O)N(C)[C@H](C[C@@H](OC(=O)N(C)C)c1nc(C(=O)N[C@@H](Cc2ccc(N)cc2)C[C@H](C)C(=O)O)cs1)C(C)C [Compound 75c]			EC50 (N87 gastric cancer cells): 5.4 nM
CC[C@H](C)[C@H](NC(=O)[C@H]1CCCCN1C)C(=O)N(C)[C@H](C[C@@H](OC(C)=O)c1nc(C(=O)N[C@@H](Cc2ccccc2)C[C@H](C)C(=O)O)cs1)C(C)C [Compound A, reference compound]	2.4 nM	1.2 nM	
COc1cccc2c1C(=O)c1c(O)c3c(c(O)c1C2=O)C[C@@](O)(C(=O)CO)C[C@@H]3O[C@H]1C[C@H](N)[C@H](O)[C@H](C)O1 [doxorubicin, reference compound]			EC50 (H226 lung cancer cells; Homo sapiens, NCI-H226, H226 lung cancer cells, ATP luminescence assay, read-out: EC50): 115 nM; EC50 (786-O renal cancer cells; Homo sapiens, 786-0, 786-O renal cancer cells, ATP luminescence assay, read-out: EC50): 68.9 nM
CC[C@H](C)[C@H](NC(=O)[C@H]1CCCCN1C)C(=O)N(COC(=O)CC(C)C)[C@H](C[C@@H](OC(C)=O)c1nc(C(=O)N[C@@H](Cc2ccccc2)C[C@H](C)C(=O)O)cs1)C(C)C [tubulysin D, reference compound]			EC50 (H226 lung cancer cells; H226 lung cancer cells, ATP luminescence assay, read-out: EC50): 0.05 nM; EC50 (786-O renal cancer cells; 786-O renal cancer cells, ATP luminescence assay, read-out: EC50): 0.02 nM
